From patent US20190112208A1, “COMPOSITIONS EXHIBITING SYNERGY IN BIOFILM CONTROL” (SOLENIS TECHNOLOGIES, L.P., priority 2017, published 2019)
Like-named read-outs stand apart in the source and are kept apart here.

Tested on: Pseudomonas putida biofilms
Format: cell-based
Method: In this work the efficacy of the agents alone and in combination were determined by measuring the number of viable cells in model biofilms remaining after treatment. The Minimum Biofilm Eradication value (MBEC) is defined as a 95% reduction in the number of viable cells compared to the untreated control. The relatively non-toxic dispersants are unable to reach that level of killing with physically possible concentrations, thus for those agents the MBEC is considered the highest value tested. Since this value is used as the divisor in the synergy index equation this highest tested value is actually an underestimate of the MBEC and thus synergy index values are also […].
Dose response studies were performed to determine the Minimum Biofilm Eradication Concentration (MBEC) for monochloramine and SDBS alone. The MBEC is defined as the concentration of agent that reduces the viable biofilm population by 95% of the untreated control value as measured by viable plate counts. Experiments were then performed to determine the result of combining the two agents, oxidizing biocide monochloramine and dispersant SDBS, on biofilm populations. The experiments examined three concentrations of monochloramine with four concentrations of SDBS. The SDBA used in the examples was Bio-Soft™ D-4 (Stepan Company, Northfield, Ill.).
M9YG media is a simple minimal salt medium supplemented with 500 mg/L glucose and 0.01% yeast extract. The salts composition is intended to mimic a typical cooling tower water composition. The composition of the media is made using the following procedure: 5XM9 salt composition is mixed using 64 gm Na2HPO4.7H2O, 15 grams KH2PO4, 2.5 gm NaCl and 5 grams NH4Cl in one liter of water. This is divided into 200 ml aliquots and sterilized (by autoclave). To 750 ml of sterile deionized water is added the sterile supplement solutions while stirring. A white precipitate will appear on addition of the CaCl2 but will dissolve with stirring. Supplement solution is 200 ml of 5XM9 composition, 2 ml of 1M MgSO4, 0.1 ml of 1M CaCl2, 20 ml of 20% glucose, 1 ml of 10% yeast extract, and enough water to make 1000 ml of solution. […]
Biofilms were grown on stainless steel 316 coupons in a CDC Biofilm reactor using M9YG minimal salts growth media for a period of twenty-four hours. […] Viable cells released into the fluid were then determined by a plating method.
Synergy indices were calculated as described in Kull et al. as in example 1.
Dose response studies were performed to determine the Minimum Biofilm Eradication Concentration (MBEC) for monochloramine/dichloramine blend (MCA/DCA) and SDBS alone. The MBEC is defined as the concentration of agent that reduces the viable biofilm population by 95% of the untreated control value as measured by viable plate counts. […]

Row | Compound | % Biofilm reduction (Example 1, 20 mg/L MCA alone) [%] | % Biofilm reduction (Example 1, 20 mg/L MCA alone, listed as monochloramine) | % Biofilm reduction (Example 1, 312 mg/L SDBS alone) [%] | % Biofilm reduction (Example 2, 312 mg/L SDBS alone) [%]
1 | NCl [MCA, monochloramine] | 93.58 | greater than 90% |  | 
2 | Sodium dodecylbenzenesulfonates [SDBS] |  |  | 48.62 | 84.58
